How the values were obtained:
[1] = test system: BxPC3 pancreatic carcinoma cells; test: MTT cytotoxicity test, BxPC3; format: cell-based, human; conditions: for IC50: BxPC3, 72 h, MTT, ± S.D.; for times more effective than cisplatin: BxPC3 cells
Experimental: (§1) The cytotoxic activity of the complexes and of the uncoordinated ligands was evaluated by the MTT test on a panel of human tumor cell lines containing examples of pancreatic (BxPC3), colorectal (HCT-15), breast (MCF-7), cervical (A431), and lung (A549) cancers as well as of melanoma (A375). For comparison purposes, the cytotoxicity of cisplatin was evaluated under the same experimental conditions.
(§2) Cisplatin was dissolved in 0.9% NaCl solution.
(§3) Human breast (MCF-7), colon (HCT-15), lung (A549) and pancreatic (BxPC3) carcinoma cell lines together with melanoma (A375) cells were obtained from American Type Culture Collection (ATCC, Rockville, MD). The human ovarian cancer cell line 2008 and its cisplatin resistant variant, C13*, were kindly provided by Prof. G. Marverti (Department of Biomedical Science of Modena University, Italy). Human cervical carcinoma (A431) cells were kindly provided by Prof. F. Zunino (Division of Experimental Oncology B, Istituto Nazionale dei Tumori, Milan, Italy). Cell lines were maintained in the logarithmic phase at 37 °C in a 5% carbon dioxide atmosphere using the following culture media containing 10% fetal calf serum (Euroclone, Milan, Italy), antibiotics (50 units/mL penicillin and 50 μg/mL streptomycin) and 2 mM L-glutamine: (i) RPMI-1640 medium (Euroclone) for 2008, C13*, MCF-7, HCT-15, A431 and BxPC3 cells, (ii) F-12 HAM’S (Sigma Chemical Co.) for A549 cells, iii) DMEM (Sigma Chemical Co.) for A375 cells.
(§4) The growth inhibitory effect toward tumor cells was evaluated by means of the MTT assay. Briefly, (3–8) × 10^3 cells/well, dependent upon the growth characteristics of the cell line, were seeded in 96-well microplates in growth medium (100 μL). After 24 h, the medium was removed and replaced with fresh medium containing the compound to be studied at the appropriate concentration. Triplicate cultures were established for each treatment. After 24, 48, or 72 h, each well was treated with 10 μL of a 5 mg/mL MTT saline solution and, after 5 h of incubation, 100 μL of a sodium dodecylsulfate (SDS) solution in 0.01 M HCl was added. After an overnight incubation, cell growth inhibition was detected by measuring the absorbance of each well at 570 nm using a Bio-Rad 680 microplate reader. The mean absorbance for each drug dose was expressed as a percentage of the control, untreated well absorbance and plotted vs drug concentration. The IC50 values, the drug concentrations that decrease the mean absorbance at 570 nm to 50% of that of untreated control wells, were calculated from the dose–response curves with the four-parameter logistic model (4PL). The final value is the mean ± S.D. of at least three independent experiments performed in triplicate.

[2] = test system: HCT-15 colon carcinoma cells; test: MTT cytotoxicity test, HCT-15; format: cell-based, human; conditions: for IC50: HCT-15, 72 h, MTT, ± S.D.; for times more effective than cisplatin: HCT-15 cells
Experimental: as §1, §2, §3, §4

[3] = test system: MCF-7 breast carcinoma cells; test: MTT cytotoxicity test, MCF-7; format: cell-based, human; conditions: MCF-7, 72 h, ± S.D.
Experimental: as §1, §2, §3, §4

A375 melanoma cells = test: MTT cytotoxicity test, A375; format: cell-based, human; conditions: A375, 72 h, ± S.D.
Experimental: as §1, §2, §3, §4

[4] = test system: 2008 ovarian cancer cells; test: MTT cytotoxicity test, cisplatin-sensitive 2008; format: cell-based, human; conditions: 2008 cisplatin-sensitive, 72 h, ± S.D.
Experimental: The cytotoxic properties of the complexes were also evaluated in a pair of tumor cell lines suitably selected for their sensitivity and resistance to cisplatin (adenocarcinoma cells 2008/C13^*). Cross-resistance profiles were evaluated by means of the resistance factor (RF), defined as the ratio between IC50 values calculated for the resistant cells and those obtained with the sensitive ones (Table 2). The phenomenon of cisplatin resistance is multifactorial in nature. Nevertheless, the main molecular mechanisms involved in drug resistance in C13* cancer cells have largely been identified. Indeed, in this cell line resistance is correlated to high cellular glutathione and thioredoxin reductase levels, reduced cellular drug uptake and enhanced repair of DNA damage. […] The RF values calculated for all derivatives were six- to nine-fold lower than that of cisplatin, clearly indicating the absence of cross-resistance.
as §2
Triplicate cultures were established for each treatment.

[5] = test system: C13* cisplatin-resistant ovarian cancer cells; test: MTT cytotoxicity test, cisplatin-resistant C13*; format: cell-based, human; conditions: for IC50: C13* cisplatin-resistant, 72 h, MTT, ± S.D.; for RF (resistance factor): IC50 resistant (C13*) / parent line (2008)
Experimental: The cytotoxic properties of the complexes were also evaluated in a pair of tumor cell lines suitably selected for their sensitivity and resistance to cisplatin (adenocarcinoma cells 2008/C13^*). Cross-resistance profiles were evaluated by means of the resistance factor (RF), defined as the ratio between IC50 values calculated for the resistant cells and those obtained with the sensitive ones (Table 2). The phenomenon of cisplatin resistance is multifactorial in nature.
as §2, §3, §4

[6] = Stability in physiological saline by mass spectrometry; format: physicochemical; conditions: 0.9% NaCl
Experimental: Ten indole carboxylic acid Pt(IV) complexes with IAA (indole-3-acetic acid, 1A–5A) and IPA (indole-3-propionic acid, 1P–5P) were synthesized and the structures are depicted in Fig. 3. The monocarboxylato complexes 1A and 1P were prepared by reacting oxoplatin, c,c,t-[Pt(NH3)2Cl2(OH)2], with 0.8 eq. of the activated NHS-ester of the corresponding indole carboxylic acid. The dicarboxylato complexes with two indole acids in axial position (2A and 2P) were obtained using an excess of the NHS-ester activated acid (20 eq.), since the second hydroxo group of oxoplatin is much less reactive than the first one. The unsymmetrically substituted complexes (3A–5A and 3P–5P) were prepared by reaction of the monocarboxylate complexes 1A and 1P with the corresponding anhydrides. We chose three different anhydrides (benzoic, acetic and succinic anhydride) to vary the lipophilicity of the resulting Pt(IV) complexes. All the synthesized Pt(IV) complexes were characterized using elemental analysis, ESI-MS, FT-IR, ^1H and ^195Pt NMR spectroscopy. The purity of the complexes has been assessed through elemental analysis and–where solubility was not an issue–by high performance liquid chromatography (HPLC). The dicarboxylato complexes are poorly soluble in organic solvents. The proton NMR spectra of the complexes in DMSO-d6 show the typical signal of the NH3 protons which is a multiplet at around 6 ppm for the monocarboxylato complexes 1P and 1A (typical ^1JNH and ^2JPtH values around 50 Hz) while it is a broad signal around 6.5 ppm for the bis-substituted complexes (2–5A and 2–5P, Supplementary Information)[44]. The mass spectra of the complexes show a peak in the negative mode with the typical platinum isotope pattern corresponding to M − H^− or M + Cl^−. Stability studies on representative examples of the complexes (1A, 1P, 3A and 3P) via mass spectrometry confirm that the complexes are stable in physiological saline (0.9% NaCl) for at least 48 h (Supplementary Information).
Complexes 1A, 1P, 3A and 3P where dissolved in a minimum amount of DMF and diluted 1:20 with physiological saline (0.9% NaCl). Mass spectra were recorded at t = 0 and after 48 hours.

Q: With `[NH2][Pt]([NH2])([OH])([Cl])([Cl])[O]C(=O)Cc1c[nH]c2ccccc12` [Complex 1A] as the compound, how does the IC50 [1] read?
A: 2.64 ± 0.97 µM

Q: And the “times more effective than cisplatin” value [1]?
A: four times

Q: What about the IC50 [2] of the same compound?
A: 9 ± 3.13 µM

Q: And the “times more effective than cisplatin” value [2]?
A: about two times

Q: And the IC50 [3]?
A: 3.62 ± 0.94 µM

Q: What about the IC50 (A375 melanoma cells) of the same compound?
A: 1.31 ± 0.82 µM

Q: And the IC50 [4]?
A: 2.89 ± 1.22 µM

Q: What about the IC50 [5] of the same compound?
A: 2.51 ± 1.5 µM

Q: What about the “RF (resistance factor)” value [5] of the same compound?
A: 0.9

Q: What about the “stable in physiological saline” value [6] of the same compound?
A: at least 48 h

Q: What does the source list for `[NH2][Pt]([NH2])([OH])([Cl])([Cl])[O]C(=O)CCc1c[nH]c2ccccc12` [Complex 1P, cis,cis,trans-[Pt(NH3)2Cl2(IPA)(OH)]]?
A: IC50 [1]: 2.26 ± 0.99 µM; times more effective than cisplatin [1]: four times; IC50 [2]: 3.66 ± 0.91 µM; times more effective than cisplatin [2]: about two times; IC50 [3]: 3.78 ± 0.16 µM; IC50 (A375 melanoma cells): 0.76 ± 0.02 µM; IC50 [4]: 1.45 ± 0.37 µM; IC50 [5]: 1.14 ± 0.5 µM; RF (resistance factor) [5]: 0.8; stable in physiological saline [6]: at least 48 h

Q: For `[NH2][Pt]([NH2])([Cl])([Cl])([O]C(=O)Cc1c[nH]c2ccccc12)[O]C(=O)c1ccccc1` [Complex 3A], which IC50 [1] is on record?
A: 2.56 ± 1.07 µM

Q: What about the IC50 [2] of the same compound?
A: 3.67 ± 1.31 µM

Q: What about the IC50 [3] of the same compound?
A: 3.76 ± 0.76 µM

Q: And the IC50 (A375 melanoma cells)?
A: 3.53 ± 0.6 µM

Q: What about the IC50 [4] of the same compound?
A: 9.97 ± 3.18 µM

Q: And the IC50 [5]?
A: 6.52 ± 1.96 µM

Q: What about the “RF (resistance factor)” value [5] of the same compound?
A: 0.7

Q: And the “stable in physiological saline” value [6]?
A: at least 48 h

Q: For `[NH2][Pt]([NH2])([Cl])([Cl])([O]C(=O)CCC(=O)O)[O]C(=O)Cc1c[nH]c2ccccc12` [Complex 4A], which IC50 [1] is on record?
A: > 50 µM

Q: What about the IC50 [2] of the same compound?
A: > 50 µM

Q: And the IC50 [3]?
A: > 50 µM

Q: What about the IC50 (A375 melanoma cells) of the same compound?
A: 48.5 ± 1.48 µM

Q: What about the IC50 [4] of the same compound?
A: > 50 µM

Q: And the IC50 [5]?
A: > 50 µM

Q: For `CC(=O)[O][Pt]([NH2])([NH2])([Cl])([Cl])[O]C(=O)Cc1c[nH]c2ccccc12` [Complex 5A], which IC50 [1] is on record?
A: 44.4 ± 6.19 µM

Q: What about the IC50 [2] of the same compound?
A: 44.75 ± 0.07 µM

Q: What about the IC50 [3] of the same compound?
A: 43.26 ± 0.22 µM

Q: What about the IC50 (A375 melanoma cells) of the same compound?
A: 26.9 ± 4.04 µM

Q: And the IC50 [4]?
A: 41.2 ± 0.75 µM

Q: And the IC50 [5]?
A: 46.6 ± 3.41 µM

Q: What about the “RF (resistance factor)” value [5] of the same compound?
A: 1.1
